Data published in PMC3158126, “Characterization of antigenic variants of hepatitis C virus in immune evasion” (Virology Journal, 2011).

Assays:
[1] = test system: PBMC from a HCV-infected patient B3019; assay: T-cell proliferation (tritiated thymidine incorporation) with single wild type and variant peptides; assay type: cell-based, human; settings: flow cytometry analysis of cells stimulated by wild type peptide
[2] = test system: CD4+ cells from PBMC of HLA-DRB1*15-positive HCV-infected patients; assay: Intracellular cytokine staining and flow cytometry of purified CD4+ cells (Treg phenotypes), HCV+ patients; assay type: cell-based, human
Procedure: (§1) PBMCs were re-suspended at a concentration of 1 × 10^6 /ml in RPMI 1640 tissue culture medium as mentioned above in the description of the proliferation assay. 1 ml aliquots of PBMC were added to a 24-well tissue culture plate containing each wild type NS3_358-375 or variant pool, and medium alone. The concentrations of peptides are 5 μM for NS3_358-375 and 1 μM for each of variant peptides. After culturing for 66 hours, the PBMCs were treated with anti-human CD4 antibodies and magnetic micro-beads (Miltenyi Biotec, Auburn, CA) for positive selection of CD4 cells using a Magnetic Cell Separator (MACS, Miltenyi Biotec). The purity of CD4^+ cells obtained was 99.3% determined by Flow Cytometry.
(§2) The purified CD4^+ cells were treated with 0.5 ml of fix/permeabilizing solution (BD Pharmingen) for 10 minutes. After washing, the appropriate volume of specific fluorescent-labeled anti-CD25-ECD, anti-IFN-γ-FITC, anti-IL-10-PE, anti-TGF-β1-biotin and streptavidin-CyChrome were added to each of the tubes. One additional tube of CD4^+ cells were incubated with Foxp3-FITC, CD152 (CTLA-4)-PE and CD25-ECD. A tube of pooled CD4^+ cells from each culture was stained with isotype antibodies equivalent to each of the antibodies described above. In addition, four tubes of pooled CD4^+ cells were stained with each of the above antibodies alone as single-color controls which is necessary for color compensation. All tubes were incubated for 30 minutes in dark at room temperature. After washing, cells were re-suspended in 300 μl of wash buffer (BD Pharmingen), and a four color or three-color flow cytometry assay was performed within 24 hours at the Flow Cytometry Service Laboratory of the University of Illinois at Chicago. A total 1 × 10^5 cells were counted to determine the ratio of CD25^+, CD25^- and cytokine producing cells of each CD4^+ population.
Figure 3 Treg phenotypes induced by peptide NS3_358-375 and variant pools VP1 and VP2. Cell culture adn purification of CD4^+ cells and controls were the same as described in Figure 2. Intracellular staining and four-color flow cytometry using fluorescent-labeled antibodies to human CD25, IFN-γ, TGF-β and IL-10 were performed with purified CD4^+ cells. A pool from each test was used as an isotype control. A: Percentages of CD25^+ gated CD4^+ cells. […] B: Percentages of Th3 and Tr1 cells. Note that 58~67% of the CD25^+ cells were TGF-β^+ (sum of the upper two quadrants). A majority of the CD25^+IL-10^+ cells were also TGF-β^+ (the upper right quadrant). C: Percentages of CD25^- gated CD4^+ cells. D: Percentages of Th3 and Tr1 cells. […] Two representatives of eight experiments are shown. […]

[3] = test system: CD4+ cells from PBMC of HLA-DRB1*15-positive healthy individuals; assay: Intracellular cytokine staining and flow cytometry of purified CD4+ cells (Treg phenotypes), HCV- healthy subjects; assay type: cell-based, human; settings: median (range), n = 3 HLA-DRB1*15+ healthy subjects; NS3_358-375 5 μM or variant pool 1 μM each peptide, 66 hours
Procedure: as §1, §2
Supplementary file 1743-422X-8-377-S3.DOC: Additional file 3 Figure S2. CD4+CD25+ and CD4+CD25- Tregs of a HCV- healthy individual. Experiments, controls, and data analysis were the same as described in Figure 4. A: Percentages of CD25+ and CD25- gated CD4+ cells. B: Percentages of CD25+ Th3 and Tr1 cells. C: Percentages of CD25- Th3 and Tr1 cells. A single representative of three experiments is shown. Click here for file

[4] = test system: CD4+ T cells of HCV-infected patient; assay: Foxp3 and CTLA-4 (CD152) expression on CD4+CD25+ and CD4+CD25- cells, flow cytometry; assay type: cell-based, human
Procedure: as §2
Figure 4 Characteristics of antigen-driven CD25^+ and CD25^- Tregs. Cellular culture and separation of CD4^+ T cells and controls were the same as described in Figure 2. The purified CD4^+ cells were stained with fluorescent-labeled antibodies for human CD25, CTLA-4 and Foxp3 followed by a flow cytometry assay. The effect of peptide NS3_358-375 and variant pools VP1 and VP2 on expression of Foxp3 (A) and CTLA-4 (B) on CD4^+CD25^- (blue) and CD4^+CD25^+ (red) T cells is shown. Median values for each population are shown in the boxes. One representative of two experiments is shown. […]

[5] = molecular target: HLA-DRB1*1501 molecules (Homo sapiens, UniProt P01903+P01911); settings: cited from earlier work
Source text: Our previous studies identified a CD4 epitope derived from the NS3 protein of HCV, NS3_358-375 [38]. […] Antigenic variants of the Th1 epitope were identified by RT-PCR, cloning and sequencing. Peptides of wild type NS3_358-375 and its variants (single or double amino acid substitutions) were synthesized and used in the current study (Table 1).

[6] = cells obtained at about 1.5 years of HCV infection, Figure S3
[7] = median (range), n = 6 HLA-DRB1*15+ HCV+ patients, NS3_358-375 5 μM or variant pool 1 μM each peptide, 66 hours

Sequence: VIKGGRHLIFCHSKKKCD [NS3_358-375]
- proportion of peripheral proliferating cells that were CD4+ [1]: greater than 95%
- ratio of CD4+CD25+ cells (CD25+ gated CD4+ cells) ([2]; Figure 3A, representative experiment, NS3_358-375 5 μM, pools 1 μM each peptide, listed as wild-type peptide): 26.0%
- percentage of CD25-TGF-β+ cells among CD4+CD25- cells ([2]; Figure 3D, text value (upper two quadrants)): 12.7%
- CD25-IL-10+ Tr1 cells ([2]; PBMCs from another DRB1*15+ patient infected with HCV over 20 years, Figure S4): 25%
- CD25+ IL-10-secreting Tr1 cells [2, 6]: 2.9%
- CD25- IL-10-secreting Tr1 cells [2, 6]: 7.6%
- CD25+ of CD4+ cells, HCV+ patients [2, 7]: 21.6 (18 - 27) %
- IL-10+ of CD4+CD25+ cells, HCV+ patients [2, 7]: 6.51 (3.0 - 11) %
- TGFβ+ IL-10+ of CD4+CD25+ cells, HCV+ patients [2, 7]: 7.85 (5.0 - 12) %
- TGFβ+ of CD4+CD25+ cells, HCV+ patients [2, 7]: 55.4 (37 - 59) %
- CD25+ of CD4+ cells, HCV- subjects [3]: 10.1 (10 - 14) %
- IL-10+ of CD4+CD25+ cells, HCV- subjects [3]: 2.95 (2.6 - 3.2) %
- TGFβ+ IL-10+ of CD4+CD25+ cells, HCV- subjects [3]: 0.67 (0.5 - 2.5) %
- TGFβ+ of CD4+CD25+ cells, HCV- subjects [3]: 5.04 (2.0 - 8.5) %
- expression of Foxp3 and CTLA-4 compared to cells cultured with medium alone ([4]; CD25+ cells): down-regulated
- Foxp3 level in CD4+CD25+ cells (median value) ([4]; Figure 4A, one representative of two experiments): 77.8
- CTLA-4 (CD152) level on CD4+CD25+ cells (median value) ([4]; Figure 4B, one representative of two experiments): 38.4
- binding to HLA-DRB1*1501 [5]: binds to HLA-DRB1*1501 well
